Data on 65 compounds can be found in the Bradley open melting point set (2014).

The structures appear in SMILES notation. Where a name gives a salt, the structure may show the parent alone.

`CCCCCCCCCCCCO` [1-dodecanol] returned a melting point of 26 °C.
As to `COc1ccc(I)cc1N` [5-iodo-2-methoxyaniline], the melting point amounted to 86 °C.
To `BrC(Br)c1ccc(C(Br)Br)cc1` [1,4-bis(dibromomethyl)benzene] belongs 168 °C; to `OB(O)c1ccc(Cl)cc1` [4-chlorobenzeneboronic acid], 273 °C.
In the case of `Cc1cc(C)cc(-c2cc(C)cc(C)c2)c1` [3,3',5,5'-tetramethylbiphenyl] it was 48 °C; in that of `O=C(O)c1sc2ccccc2c1Cl` [3-chlorobenzo[b]thiophene-2-carboxylic acid], 266 °C; in that of `C[Si](C)(C)OS(=O)(=O)O[Si](C)(C)C` [bis(trimethylsilyl) sulfate], 46 °C.
In the case of `C` [methane] it was -183 °C; in that of `C=CCCCCCCCCCCC` [1-tridecene], -23 °C.
Turning to `Oc1cccc(O)c1O` [1,2,3-trihydroxybenzene], the melting point worked out at 134 °C.
To `CCCNC(=O)NS(=O)(=O)c1ccc(Cl)cc1` [chlorpropamide] belongs 128 °C; to `Cc1c(C)n(C#N)c2ccccc12` [2,3-dimethyl-1H-indole-1-carbonitrile], 97 °C.
Compound `c1ccc2[nH]nnc2c1` [1h-benzotriazole] had a melting point of 98 °C.
In the case of `Cc1ccc(S)c(S)c1` [4-Methylbenzene-1,2-dithiol], the melting point is 31 °C.
In the case of `C=C(C)C(=O)OC` [Methyl methacrylate] it was -48 °C; in that of `CCOC(=O)C(C#N)=c1sc(=C(C#N)C(=O)OCC)s1` [DIETHYL 2,2'-(1,3-DITHIETANE-2,4-DIYLIDENE)BIS(CYANOACETATE)], 161 °C.
In turn, `C=CC(=O)O` [acrylic acid] returned a melting point of 13 °C.
`O=[N+]([O-])c1ccc(O)c2ncccc12` [8-hydroxy-5-nitroquinoline] yielded a melting point of 180 °C.
In the case of `NC(=O)N1c2ccccc2C=Cc2ccccc21` [Carbamazepine] it was 190 °C.
Regarding `C(=C\c1ccccc1)/c1ccccc1` [trans-Stilbene], the melting point amounted to 125 °C.
In the case of `C=C(CC1c2ccccc2C(=O)N1Cc1ccccc1)c1ccccc1` (stereo not given) [2-Benzyl-3-(2-phenyl-2-propenyl)isoindolin-1-one] it was 70.5 °C.
In the case of `COc1ccc(Br)c(OC)c1` [1-bromo-2,4-dimethoxybenzene] it was 26 °C.
`O=C(O)c1ccccc1-c1c2cc(Br)c(=O)c(Br)c-2oc2c(Br)c(O)c(Br)cc12` registered a melting point of 300 °C.
In the case of `CC(=O)Nc1ccc(C(=O)O)cc1` [4-acetamidobenzoic acid] it was 260 °C; in that of `CCC(C)N` (stereo not given) [2-aminobutane], -104 °C.
For the compound `OC[C@@H](O)[C@@H](O)[C@@H](O)CO` [D-Ribitol], the melting point came out at 102 °C.
To `C#CCCCCCCCC` [Dec-1-yne] belongs -44 °C; to `Sc1nc2ccccc2s1` [2-mercaptobenzothiazole], 180 °C; to `O=C(O)c1c2ccccc2cc2ccccc12` [Anthracene-9-carboxylic acid], 213 °C.
In the case of `Cc1cc(=O)oc2cc(O)ccc12` [4-methylumbelliferone], the melting point came out at 189 °C.
To `NC(=O)c1cccnc1` [nicotinamide] belongs 130 °C.
To `N#CCC#N` [malononitrile] belongs 34 °C.
Take `CCOC(=O)O[C@]1(C(=O)OCCl)CC[C@H]2[C@@H]3CCC4=CC(=O)C=C[C@]4(C)[C@H]3[C@@H](O)C[C@@]21C` [Loteprednol]: the melting point is 222 °C.
For `N=C1c2ccccc2C(=O)N1c1n[nH]c2ncccc12`, the melting point stood at 254 °C.
In the case of `N#Cc1cccc(O)c1` [3-cyanophenol] it was 82 °C.
In the case of `CC(=O)c1ccc(C(F)(F)F)cc1` [4'-(trifluoromethyl)acetophenone] it was 32 °C; in that of `CC1=CC[C@@H]2C[C@H]1C2(C)C` [alpha-pinene], -62 °C; in that of `CCN(CC)CCNC(=O)c1cc(Cl)c(N)cc1OC` [metoclopramide], 147 °C.
Regarding `O=C1C=CC(=O)N1c1ccc(Br)cc1` [N-(4-bromophenyl)maleimide], the melting point came to 129 °C.
In the case of `N#Cc1cncnc1N` [4-aminopyrimidine-5-carbonitrile] it was 255 °C; in that of `CCCCCC(C)=O` [Heptan-2-one], -35 °C; in that of `Fc1c(F)c(F)c(P(c2ccccc2)c2c(F)c(F)c(F)c(F)c2F)c(F)c1F` [bis(pentafluorophenyl)phenylphosphine], 62 °C.
`O=C(c1ccccc1)C(O)c1ccccc1` (stereo not given) [2-Hydroxy-1,2-diphenylethanone] had a melting point of 135 °C.
In the case of `Nc1ccc([N+](=O)[O-])cc1` [4-nitroaniline] it was 148 °C; in that of `c1ccc2c(c1)ccc1cc3c(ccc4ccccc43)cc12` [1,2,5,6-Dibenzanthracene dibenz[a,h]anthracene], 266 °C; in that of `Nc1ccc(N)nc1` [2,5-diaminopyridine], 96 °C.
In the case of `CS(=O)(=O)OS(C)(=O)=O` [methanesulfonic anhydride] it was 67 °C; in that of `COc1ccc(CCN)cc1OC` [2-(3,4-dimethoxyphenyl)ethylamine], 11 °C.
In turn, `COc1cc(C=O)cc(OC)c1` [3,5-dimethoxybenzaldehyde] came in with a melting point of 47 °C.
To `Cc1ccccc1[N+](=O)[O-]` [2-nitrotoluene] belongs -4 °C; to `O=C(O)c1cc(O)ccc1O` [2,5-Dihydroxybenzoic acid], 205 °C; to `NC(=O)c1ccc(O)cc1` [4-hydroxybenzamide], 161 °C.
In the case of `CCOC(=O)/C(C#N)=C/c1ccc(-c2ccccc2Br)o1` it was 124 °C; in that of `Cn1ccnc1I` [2-iodo-1-methylimidazole], 81 °C; in that of `C=CC(=O)OC` [methyl acrylate], -75 °C.
`CCOC(=O)OCC` [Diethyl carbonate] displayed a melting point of -43 °C.
In the case of `Cc1nccn1CC1CCc2c(c3ccccc3n2C)C1=O` (stereo not given) [ondansetron] it was 231 °C; in that of `CC#N` [Acetonitrile], -46 °C.
To `CCCCCCCCCCCCC(=O)O` [N-Tridecanoic Acid] belongs 44.5 °C; to `O=C(O)c1ccc(Br)o1` [5-bromo-2-furoic acid], 190 °C.
The compound `CCC(=O)O` [propionic acid] yielded a melting point of -21 °C.
To `N#CC(C#N)=Nc1ccccc1` [(phenylimino)propanedinitrile] belongs 87 °C.
In the case of `COc1ccc(N=C(CNc2ccc(OC)cc2)Nc2ccc(OC)cc2)cc1` it was 159 °C; in that of `c1ccc2cc3ccccc3cc2c1` [Anthracene], 216 °C.
To `CC(C)(C)OC(=O)N1CCC[C@@H](O)C1` [(R)-1-boc-3-hydroxypiperidine] belongs 47 °C.
